# Assay results published in US20170275270A1, “BENZYL SUBSTITUTED INDAZOLES” (Bayer Pharma Aktiengesellschaft, priority 2014, published 2017).
# Like-named read-outs stand apart in the source and are kept apart here.
# Legend:
# [1] = target: T1, catalytic domain of human Bub1 (amino acids 704-1085) (Homo sapiens, UniProt O43683); assay: Bub1 kinase assay (TR-FRET); format: biochemical
# T1 construct: catalytic domain of human Bub1 (amino acids 704-1085); His6 (N); made in house; host or cells: Hi5 insect cells
# T1 sequence (O43683 704-1085): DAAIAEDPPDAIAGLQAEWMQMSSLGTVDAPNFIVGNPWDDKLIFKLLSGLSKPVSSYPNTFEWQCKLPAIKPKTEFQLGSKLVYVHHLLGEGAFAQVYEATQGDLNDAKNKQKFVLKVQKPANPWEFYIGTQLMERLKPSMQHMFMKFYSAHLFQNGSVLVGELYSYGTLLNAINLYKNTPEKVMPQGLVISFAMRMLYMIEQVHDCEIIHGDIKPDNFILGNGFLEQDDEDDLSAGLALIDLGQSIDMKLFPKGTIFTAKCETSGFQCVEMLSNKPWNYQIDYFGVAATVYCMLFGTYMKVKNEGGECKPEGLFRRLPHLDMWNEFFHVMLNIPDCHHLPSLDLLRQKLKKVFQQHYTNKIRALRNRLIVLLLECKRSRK
# Procedure, shortened: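 Compounds from 2 mM DMSO stocks, serially diluted 1:3.4, incubated with enzyme at 22° C for 60 min. Stopped with EDTA, then 1 h with streptavidin-XL665, anti-phosphoserine antibody and Eu-labelled anti-mouse IgG. Phosphorylated biotin-peptide read by TR-FRET; IC50 by 4-parameter logistic fit.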
# [2] = target: Bub1 (Homo sapiens, UniProt O43683); assay: Formation-Assay: phosphorylation status of histone 2A by inhibition of kinase activity of Bub1; format: cell-based; settings: Biological Assay 4.1: H2A Formation IC50, co-treatment with Nocodazole 1 μg/ml, 16 h
# Chain of Bub1 (O43683 whole entry): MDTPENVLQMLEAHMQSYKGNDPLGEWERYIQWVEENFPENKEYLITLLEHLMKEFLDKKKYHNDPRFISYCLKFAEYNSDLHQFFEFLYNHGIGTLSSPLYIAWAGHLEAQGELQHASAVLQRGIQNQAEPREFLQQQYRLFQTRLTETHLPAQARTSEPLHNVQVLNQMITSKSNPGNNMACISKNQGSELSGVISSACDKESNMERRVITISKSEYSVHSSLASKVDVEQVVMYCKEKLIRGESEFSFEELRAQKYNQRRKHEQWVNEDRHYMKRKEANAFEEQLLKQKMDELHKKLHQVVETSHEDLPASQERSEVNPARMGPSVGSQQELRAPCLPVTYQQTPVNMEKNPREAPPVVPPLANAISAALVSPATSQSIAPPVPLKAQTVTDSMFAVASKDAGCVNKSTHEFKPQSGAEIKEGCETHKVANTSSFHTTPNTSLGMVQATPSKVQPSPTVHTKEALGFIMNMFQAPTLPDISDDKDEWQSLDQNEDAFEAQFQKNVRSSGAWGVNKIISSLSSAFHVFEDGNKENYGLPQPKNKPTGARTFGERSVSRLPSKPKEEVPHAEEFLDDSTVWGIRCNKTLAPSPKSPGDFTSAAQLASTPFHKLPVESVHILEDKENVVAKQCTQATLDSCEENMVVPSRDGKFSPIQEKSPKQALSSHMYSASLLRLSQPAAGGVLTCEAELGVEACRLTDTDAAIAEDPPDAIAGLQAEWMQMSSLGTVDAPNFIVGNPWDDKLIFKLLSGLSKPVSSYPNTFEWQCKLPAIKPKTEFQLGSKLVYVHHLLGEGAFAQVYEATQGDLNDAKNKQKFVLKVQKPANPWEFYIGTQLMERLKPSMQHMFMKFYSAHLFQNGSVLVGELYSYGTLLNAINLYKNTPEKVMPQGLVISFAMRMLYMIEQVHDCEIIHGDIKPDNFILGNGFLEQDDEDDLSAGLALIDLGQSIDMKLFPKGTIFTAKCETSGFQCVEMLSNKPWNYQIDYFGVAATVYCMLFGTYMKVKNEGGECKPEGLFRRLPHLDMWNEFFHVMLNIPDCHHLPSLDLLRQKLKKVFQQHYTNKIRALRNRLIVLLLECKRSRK
# Procedure, shortened: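 Cells co-treated 16 h with Nocodazole (1 μg/ml) and compound (3 nM–10 μM), then fixed and immunostained for phospho-H2A, read by infrared imaging (800 nm) normalised to cell stain (700 nm). Nocodazole-only set as 100%, untreated cells as 0%.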
# [3] = test system: HeLa; assay: Proliferation assay (HeLa cell line); settings: Homo sapiens, 96 h, read-out: Biological Assay 2: Proliferation assay (HeLa cell line) median IC50;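 note: crystal violet staining of cell number, scaled between a plate stained before dosing (0%) and cells left untreated (100%), compounds tested at 0.001-10 µM, IC50 via 4-parameter fit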
# Procedure: Cultivated tumor cells (cells were ordered from ATCC, except HeLa-MaTu and HeLa-MaTu-ADR, which were ordered from EPO-GmbH, Berlin) were plated at a density of 1000 to 5000 cells/well, depending on the growth rate of the respective cell line, in a 96-well multititer plate in 200 μL of their respective growth medium supplemented 10% fetal calf serum. After 24 hours, the cells of one plate (zero-point plate) were stained with crystal violet (see below), while the medium of the other plates was replaced by fresh culture medium (200 μL), to which the test substances were added in various concentrations (0 μM, as well as in the range of 0.001-10 μM; the final concentration of the solvent dimethyl sulfoxide was 0.5%). The cells were incubated for 4 days in the presence of test substances. Cell proliferation was determined by staining the cells with crystal violet: the cells were fixed by adding 20 μL measuring point of an 11% glutaric aldehyde solution for 15 minutes at room temperature. After three washing cycles of the fixed cells with water, the plates were dried at room temperature. The cells were stained by adding 100 μL/measuring point of a 0.1% crystal violet solution (pH 3.0). After three washing cycles of the stained cells with water, the plates were dried at room temperature. The dye was dissolved by adding 100 μl/measuring point of a 10% acetic acid solution. […] The change of cell number, in percent, was calculated by normalization of the measured values to the absorbtion values of the zero-point plate (=0%) and the absorbtion of the untreated (0 μm) cells (=100%). The IC50 values were determined by means of a 4 parameter fit.
# [4] = test system: HeLa human cervical tumor cells; assay: Proliferation assay (HeLa+Paclitaxel); settings: read-out: Biological Assay 3: HeLa + Paclitaxel IC50, 3 nM paclitaxel, crystal violet;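 note: compounds at 0.001-10 µM added 4 h after paclitaxel, 92 h exposure, absorbance normalized to zero-point plate (0%) and untreated cells (100%), IC50 from 4-parameter fit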
# [5] = 10 μM ATP, read-out: Biological Assay 1: Bub1 kinase assay median IC50
# [6] = Biological Assay 1: Bub1 kinase assay median IC50, 10 μM ATP
"IC50 [1, 5] [nM]",IC50 [2] [nM],IC50 [3] [nM],IC50 [4] [nM],"IC50 [1, 6] [nM]",SMILES
7.7,3800,3400,130,,"CCOc1cc(F)c(Cn2nc(-c3nc(CN4CCOCC4)cc(Nc4ccncc4OC)n3)c3ccccc32)c(F)c1 [Example 2-19-13, 2-[1-(4-ethoxy-2,6-difluorobenzyl)-1H-indazol-3-yl]-N-(3-methoxypyridin-4-yl)-6-(morpholin-4-ylmethyl)pyrimidin-4-amine]"
18,7100,1500,140,,"CCOc1cc(F)c(Cn2nc(-c3nc4c(c(Nc5ccncc5OC)n3)COC4)c3ccccc32)c(F)c1 [Example 2-19-17, 2-[1-(4-ethoxy-2,6-difluorobenzyl)-1H-indazol-3-yl]-N-(3-methoxypyridin-4-yl)-5,7-dihydrofuro[3,4-d]pyrimidin-4-amine]"
19,7.3,> 10000,690,,"CCOc1cc(F)c(Cn2nc(-c3nc4c(c(Nc5ccnc(C(F)F)c5)n3)CCCC4)c3ccccc32)c(F)c1 [Example 2-19-19, N-[2-(difluoromethyl)pyridin-4-yl]-2-[1-(4-ethoxy-2,6-difluorobenzyl)-1H-indazol-3-yl]-5,6,7,8-tetrahydroquinazolin-4-amine]"
7,49,5200,120,,"CCOc1cc(F)c(Cn2nc(-c3nc4c(c(Nc5ccncc5C)n3)CCCC4)c3ccccc32)c(F)c1 [Example 2-19-20, 2-[1-(4-ethoxy-2,6-difluorobenzyl)-1H-indazol-3-yl]-N-(3-methylpyridin-4-yl)-5,6,7,8-tetrahydroquinazolin-4-amine]"
,110,> 10000,130,17,"CCOc1cc(F)c(Cn2nc(-c3ncc(C4CCN(CC(F)(F)F)CC4)c(Nc4ccnc(NC(C)=O)c4)n3)c3ccccc32)c(F)c1 [Example 2-20-1, N-[4-({2-[1-(4-ethoxy-2,6-difluorobenzyl)-1H-indazol-3-yl]-5-[1-(2,2,2-trifluoroethyl)piperidin-4-yl]pyrimidin-4-yl}amino)pyridin-2-yl]acetamide]"
,9.1,> 10000,260,51,"CCOc1cc(F)c(Cn2nc(-c3ncc(C4CCN(CC(F)(F)F)CC4)c(Nc4ccnc(C)n4)n3)c3ccccc32)c(F)c1 [Example 2-20-2, 2-[1-(4-ethoxy-2,6-difluorobenzyl)-1H-indazol-3-yl]-N-(2-methylpyrimidin-4-yl)-5-[1-(2,2,2-trifluoroethyl)piperidin-4-yl]pyrimidin-4-amine]"
,2.2,> 10000,980,26,"CCOc1cc(F)c(Cn2nc(-c3ncc(C4CCN(CC(F)(F)F)CC4)c(Nc4ccncn4)n3)c3ccccc32)c(F)c1 [Example 2-20-3, 2-[1-(4-ethoxy-2,6-difluorobenzyl)-1H-indazol-3-yl]-N-(pyrimidin-4-yl)-5-[1-(2,2,2-trifluoroethyl)piperidin-4-yl]pyrimidin-4-amine]"
,31,1100,66,70,"CCOc1cc(F)c(Cn2nc(-c3ncc(C4CCN(CC(F)(F)F)CC4)c(Nc4ccncc4OC)n3)c3ccccc32)c(F)c1 [Example 2-20-4, 2-[1-(4-ethoxy-2,6-difluorobenzyl)-1H-indazol-3-yl]-N-(3-methoxypyridin-4-yl)-5-[1-(2,2,2-trifluoroethyl)piperidin-4-yl]pyrimidin-4-amine]"
,0.5,3600,210,68,"CCOc1cc(F)c(Cn2nc(-c3ncc(C4CCN(CC(F)(F)F)CC4)c(Nc4ccnc(C)c4)n3)c3ccccc32)c(F)c1 [Example 2-20-5, 2-[1-(4-ethoxy-2,6-difluorobenzyl)-1H-indazol-3-yl]-N-(2-methylpyridin-4-yl)-5-[1-(2,2,2-trifluoroethyl)piperidin-4-yl]pyrimidin-4-amine]"
